1 molecule from publication PMC4884629 (Toxicology and applied pharmacology, 2013) can be followed below.

In the experiment the target is HERG potassium channel (Homo sapiens, UniProt Q12809). The experiment is described as follows: whole-cell patch clamp, HERG tail current in CHO cells. It counts as cell-based. For orientation: The patch-clamp technique gives a direct electrical read-out from membranes.
HERG potassium channel, sequence (Q12809 whole entry): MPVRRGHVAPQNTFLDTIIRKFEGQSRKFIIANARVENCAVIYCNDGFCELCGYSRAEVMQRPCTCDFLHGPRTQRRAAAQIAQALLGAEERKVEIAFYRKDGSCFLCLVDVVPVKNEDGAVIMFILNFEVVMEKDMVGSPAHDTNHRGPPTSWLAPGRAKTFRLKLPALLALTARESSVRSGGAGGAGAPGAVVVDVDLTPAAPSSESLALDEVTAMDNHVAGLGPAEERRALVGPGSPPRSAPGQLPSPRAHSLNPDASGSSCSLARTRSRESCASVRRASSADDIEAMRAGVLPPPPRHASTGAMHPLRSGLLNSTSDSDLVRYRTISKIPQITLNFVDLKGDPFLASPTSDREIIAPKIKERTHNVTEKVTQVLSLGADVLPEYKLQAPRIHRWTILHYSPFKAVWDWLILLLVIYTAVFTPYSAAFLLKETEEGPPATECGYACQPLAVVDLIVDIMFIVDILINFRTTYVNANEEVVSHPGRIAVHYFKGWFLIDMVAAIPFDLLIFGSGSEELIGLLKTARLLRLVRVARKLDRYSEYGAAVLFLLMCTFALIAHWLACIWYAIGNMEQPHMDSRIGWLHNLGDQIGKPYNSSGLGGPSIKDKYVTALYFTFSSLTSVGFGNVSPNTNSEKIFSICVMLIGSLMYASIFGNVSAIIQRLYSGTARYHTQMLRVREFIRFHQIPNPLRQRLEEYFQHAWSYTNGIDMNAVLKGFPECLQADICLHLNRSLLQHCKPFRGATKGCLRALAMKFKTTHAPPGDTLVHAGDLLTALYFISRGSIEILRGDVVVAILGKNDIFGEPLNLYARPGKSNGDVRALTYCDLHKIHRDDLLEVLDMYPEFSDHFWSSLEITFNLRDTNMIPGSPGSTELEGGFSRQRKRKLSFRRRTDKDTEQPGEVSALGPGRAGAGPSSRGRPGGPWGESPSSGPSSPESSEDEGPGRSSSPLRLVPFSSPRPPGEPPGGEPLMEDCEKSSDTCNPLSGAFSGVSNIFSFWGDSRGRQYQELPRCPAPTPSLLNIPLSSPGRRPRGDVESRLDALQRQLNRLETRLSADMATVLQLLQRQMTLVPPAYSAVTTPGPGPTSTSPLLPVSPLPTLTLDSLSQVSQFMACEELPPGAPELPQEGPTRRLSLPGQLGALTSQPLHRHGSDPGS

What is called IC50 is the concentration at which inhibition is half-maximal. A lower IC50 goes with inhibition by little substance. As for `CCCCCCCC[N+](CCCCCCCC)(CCCCCCCC)CCCCCCCC` [TB, tetra-n-octylammonium bromide], it took 4 nM to reach half-maximal inhibition (IC50).
